# According to patent publication US12398118B2, “Rho-associated protein kinase inhibitor, pharmaceutical composition comprising same, and use thereof” (BEIJING TIDE PHARMACEUTICAL CO., LTD., priority 2018, dated 2025):
# Tests used:
# ROCK2 = ROCK2 (Homo sapiens, UniProt O75116); test: ROCK2 kinase IC50, HTRF KinEASE-STK S2 kit; format: biochemical; settings: 2 hours at room temperature
# Procedure: (§1) The kinase IC50 was determined by a commercialized CISBIO kinase detection kit, HTRF KinEASE-STK S2 kit (62ST2PEC). ROCK2 (01-119) employed in the reaction was purchased from Carna Biosciences.
# (§2) Before the assay, the following working solutions as needed were formulated with corresponding reagents according to the instruction of the kinase detection kit: 1×kinase buffer, 5×STK-S2 substrate working solution (1.5 μM) and 5×ATP working solution (1.5 μM), 5×ROCK2 kinase working solution, 4×Streptavidin-XL665 working solution, and 4×STK-Ab-Cryptate 2 detection solution. Then the assay was performed according to the following procedure.
# (§3) A solution of a compound at a concentration of 10000 nM was prepared with the 1×kinase buffer containing 2.5% DMSO. Gradient dilution of the solution of the compound was performed with the kinase buffer containing DMSO, so as to obtain solutions of a test compound at 9 different concentrations. In addition to wells of test compounds, a positive well (containing all the reagents except the compound) and a negative well (containing all the reagents except the test compound and kinase) were set. Except for the control wells (positive and negative wells), a solution of a test compound (4 μL) was added to each of the reaction wells, and a solution of 2.5% DMSO was added to the control wells. Then the substrate (2 μM, i.e., 2 μL 5×STK-S2 substrate working solution) was added to each of the reaction wells. The 5×ROCK2 kinase working solution (2 μL, containing 1.4 ng ROCK2 kinase) was added to each of the reaction wells except for the negative well, the volume of which was made up with the 1×kinase buffer (2 μL). The 5×ATP working solution (2 μL) was added to each of the reaction wells, and the mixtures were incubated at room temperature for 2 hours. After the kinase reaction was complete, the 4×Streptavidin-XL665 working solution was added to each of the reaction wells, the solutions were mixed, followed by immediate addition of the 4×STK-Ab-Cryptate 2 detection solution (5 μL), and the mixtures were incubated at room temperature for 1 hour. The fluorescence signal was read on ENVISION (Perkinelmer) (excitation wavelength: 320 inn, and emission wavelength: 665 nm and 615 nm). The inhibitory rate in each well was calculated based on the fluorescence intensity value: ER (Emission Ratio)_(fluorescence intensity at 665 nm/fluorescence intensity at 615 nm); inhibitory rate=(ERpositive−ERtest compound)/(ERpositive−ERnegative)*100%. Curves were plotted and fitted to obtain the median inhibitory concentration (IC50) of each teat compound with the PRISM 5.0 software. According to a biological test method similar to the above, the IC50 values of the compounds on ROCK1 were also tested.
# ROCK1 = ROCK1 (Homo sapiens (Human), UniProt Q13464); test: ROCK1 kinase IC50, biological test method similar to ROCK2 assay; format: biochemical
# Procedure: as §1, §2, §3
# Chain of ROCK2 (O75116 whole entry, looked up): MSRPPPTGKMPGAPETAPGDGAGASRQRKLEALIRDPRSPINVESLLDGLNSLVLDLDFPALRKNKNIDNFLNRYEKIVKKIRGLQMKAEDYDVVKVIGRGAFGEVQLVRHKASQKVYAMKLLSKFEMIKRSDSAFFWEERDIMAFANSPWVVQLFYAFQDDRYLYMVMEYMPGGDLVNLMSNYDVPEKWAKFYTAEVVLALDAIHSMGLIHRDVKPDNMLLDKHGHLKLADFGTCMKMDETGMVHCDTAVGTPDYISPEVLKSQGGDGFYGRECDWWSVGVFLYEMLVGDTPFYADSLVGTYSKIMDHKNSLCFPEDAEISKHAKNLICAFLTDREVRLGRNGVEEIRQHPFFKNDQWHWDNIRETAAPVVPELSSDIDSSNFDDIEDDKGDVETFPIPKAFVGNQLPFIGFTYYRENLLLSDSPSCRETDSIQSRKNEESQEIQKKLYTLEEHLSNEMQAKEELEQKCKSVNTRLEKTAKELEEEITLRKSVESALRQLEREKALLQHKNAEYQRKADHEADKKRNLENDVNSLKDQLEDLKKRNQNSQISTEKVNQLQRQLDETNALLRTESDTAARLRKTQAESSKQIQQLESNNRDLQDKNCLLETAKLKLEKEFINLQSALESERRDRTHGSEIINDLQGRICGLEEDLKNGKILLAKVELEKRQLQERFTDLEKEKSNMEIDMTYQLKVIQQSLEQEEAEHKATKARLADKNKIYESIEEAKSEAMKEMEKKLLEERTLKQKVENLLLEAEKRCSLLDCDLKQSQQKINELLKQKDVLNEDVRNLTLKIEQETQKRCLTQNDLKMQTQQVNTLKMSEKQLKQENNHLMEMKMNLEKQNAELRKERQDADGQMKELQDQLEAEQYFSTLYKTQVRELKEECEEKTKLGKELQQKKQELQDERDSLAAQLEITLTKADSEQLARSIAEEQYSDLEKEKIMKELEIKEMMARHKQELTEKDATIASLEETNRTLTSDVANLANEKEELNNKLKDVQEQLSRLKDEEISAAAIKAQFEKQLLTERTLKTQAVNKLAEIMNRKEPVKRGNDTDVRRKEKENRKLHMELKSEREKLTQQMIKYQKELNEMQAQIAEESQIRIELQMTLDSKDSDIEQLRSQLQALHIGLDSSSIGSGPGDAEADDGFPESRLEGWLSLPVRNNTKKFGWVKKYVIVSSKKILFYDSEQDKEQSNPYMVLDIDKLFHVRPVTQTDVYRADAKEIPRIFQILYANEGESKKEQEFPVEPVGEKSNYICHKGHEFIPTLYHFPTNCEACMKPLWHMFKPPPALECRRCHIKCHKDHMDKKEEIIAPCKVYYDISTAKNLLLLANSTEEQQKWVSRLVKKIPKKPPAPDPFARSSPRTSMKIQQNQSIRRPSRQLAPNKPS
# Chain of ROCK1 (Q13464 whole entry, species assumed): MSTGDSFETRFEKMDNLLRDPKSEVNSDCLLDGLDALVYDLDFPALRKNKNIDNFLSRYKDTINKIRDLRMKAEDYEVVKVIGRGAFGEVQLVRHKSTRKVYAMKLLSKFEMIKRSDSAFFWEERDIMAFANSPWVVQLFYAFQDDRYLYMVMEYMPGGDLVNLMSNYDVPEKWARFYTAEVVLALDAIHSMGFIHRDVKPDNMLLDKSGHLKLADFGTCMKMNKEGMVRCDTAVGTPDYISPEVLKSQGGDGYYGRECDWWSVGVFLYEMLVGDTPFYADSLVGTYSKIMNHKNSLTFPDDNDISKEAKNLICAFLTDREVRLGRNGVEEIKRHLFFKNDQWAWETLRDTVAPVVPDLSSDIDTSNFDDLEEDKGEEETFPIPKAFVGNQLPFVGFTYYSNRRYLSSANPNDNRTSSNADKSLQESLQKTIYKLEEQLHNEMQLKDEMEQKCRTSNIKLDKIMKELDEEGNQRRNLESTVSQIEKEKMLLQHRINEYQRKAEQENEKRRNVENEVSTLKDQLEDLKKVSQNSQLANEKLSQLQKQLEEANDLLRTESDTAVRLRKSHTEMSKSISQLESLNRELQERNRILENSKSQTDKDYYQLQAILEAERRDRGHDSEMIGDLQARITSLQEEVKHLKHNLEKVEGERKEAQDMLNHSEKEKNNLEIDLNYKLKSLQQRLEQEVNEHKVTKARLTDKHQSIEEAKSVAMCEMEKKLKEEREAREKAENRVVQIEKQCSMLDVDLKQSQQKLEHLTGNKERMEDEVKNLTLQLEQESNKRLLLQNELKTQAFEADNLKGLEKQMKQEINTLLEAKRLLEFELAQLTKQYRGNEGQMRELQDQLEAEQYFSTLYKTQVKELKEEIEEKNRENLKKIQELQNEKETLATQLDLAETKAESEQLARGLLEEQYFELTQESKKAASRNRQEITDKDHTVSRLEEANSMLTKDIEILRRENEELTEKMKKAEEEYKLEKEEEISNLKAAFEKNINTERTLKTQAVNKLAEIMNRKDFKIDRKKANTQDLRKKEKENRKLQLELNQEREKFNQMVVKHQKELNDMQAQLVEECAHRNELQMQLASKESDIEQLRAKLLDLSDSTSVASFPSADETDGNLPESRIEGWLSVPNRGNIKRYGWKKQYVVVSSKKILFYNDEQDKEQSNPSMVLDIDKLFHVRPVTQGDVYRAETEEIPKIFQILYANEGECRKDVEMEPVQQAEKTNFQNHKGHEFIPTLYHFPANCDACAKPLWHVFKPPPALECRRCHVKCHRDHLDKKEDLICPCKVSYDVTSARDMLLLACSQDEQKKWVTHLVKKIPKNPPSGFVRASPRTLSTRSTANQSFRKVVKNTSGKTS
SMILES,IC50 (ROCK2) [nM],IC50 (ROCK1) [nM]
"CC(CC(=O)N1Cc2ccc(-c3ncc(F)c(Nc4ccc5c(=O)[nH]ccc5c4)n3)cc2C1)C(F)(F)F (centres unmarked) [C37, 6-((5-fluoro-2-(2-(4,4,4-trifluoro-3-methylbutanoyl)isoindolin-5-yl)pyrimidin-4-yl)amino)isoquinolin-1(2H)-one]",117,> 10000
"Cn1c(C(=O)N2CC(F)(F)C2)cc2ccc(-c3nccc(Nc4ccc5c(N)nccc5c4)n3)cc21 [C38, (6-(4-((1-aminoisoquinolin-6-yl)amino)pyrimidin-2-yl)-1-methyl-1H-indol-2-yl)(3,3-difluoroazetidin-1-yl)methanone]",264,> 10000
"CC(OC(=O)N1CCc2cc(-c3ncc(F)c(Nc4ccc5c(=O)[nH]ccc5c4)n3)ccc2C1)C(F)(F)F (centres unmarked) [C39, 1,1,1-trifluoro-propan-2-yl 6-(5-fluoro-4-((1-oxo-1,2-dihydro-isoquinolin-6-yl)amino)pyrimidin-2-yl)-3,4-dihydro-isoquinolin-2(1H)-carboxylate]",102,> 10000
"CC(OC(=O)N1CCc2cc(-c3nccc(Nc4ccc5c(c4)CCNC5=O)n3)ccc2C1)C(F)(F)F (centres unmarked) [C40, 1,1,1-trifluoro-propan-2-yl 6-(4-((1-oxo-1,2,3,4-tetrahydro-isoquinolin-6-yl)amino)pyrimidin-2-yl)-3,4-dihydro-isoquinolin-2(1H)-carboxylate]",270,> 10000
"O=C1NCCc2cc(Nc3nc(-c4ccc5c(c4)CN(C(=O)N4CCC(F)(F)CC4)C5)ncc3F)ccc21 [C41, 6-((2-(2-(4,4-difluoro-piperidine-1-carbonyl)isoindolin-5-yl)-5-fluoro-pyrimidin-4-yl)amino)-3,4-dihydro-isoquinolin-1(2H)-one]",151,> 10000
"CC(C)(C)OC(=O)N1CCc2sc(-c3ncc(F)c(Nc4ccc5c(c4)CCNC5=O)n3)cc2C1 [C42, tert-butyl 2-(5-fluoro-4-((1-oxo-1,2,3,4-tetrahydroisoquinolin-6-yl)amino)pyrimidin-2-yl)-6,7-dihydrothieno[3,2-c]pyridine-5(4H)-carboxylate]",31,> 10000
"O=C(N1CCc2cc(-c3nccc(Nc4ccc5c(=O)[nH]ccc5c4)n3)ccc2C1)N1CC(F)(F)C1 [C44, 6-((2-(2-(3. 3-difluoro-azetidine-1-carbonyl)-1,2,3,4-tetrahydro-isoquinolin-6-yl)pyrimidin-4-yl)amino) isoquinolin-1(2H)-one]",57,> 10000
"CC(OC(=O)N1CCc2sc(-c3ncc(F)c(Nc4ccc5c(=O)[nH]ccc5c4)n3)cc2C1)C(F)(F)F (centres unmarked) [C46, 1,1,1-trifluoropropan-2-yl 2-(5-fluoro-4-((1-oxo-1,2-dihydroisoquinolin-6-yl)amino)pyrimidin-2-yl)-6,7-dihydrothieno[3,2-c]pyridine-5(4H)-carboxylate]",21,> 10000
"CC(CC(=O)N1CCc2sc(-c3ncc(F)c(Nc4ccc5c(=O)[nH]ccc5c4)n3)cc2C1)C(F)(F)F (centres unmarked) [C47, 6-((5-fluoro-2-(5-(4,4,4-trifluoro-3-methylbutanoyl)-4,5,6,7-tetrahydrothieno[3,2-c]pyridin-2-yl)pyrimidin-4-yl)amino)isoquinolin-1(2H)-one]",15,> 10000
"CC(CC(=O)N1Cc2ccc(-c3nccc(Nc4ccc5c(=O)[nH]ccc5c4)n3)cc2C1)C(F)(F)F (centres unmarked) [C48, 6-((2-(2-(4,4,4-trifluoro-3-methyl-butanoyl)isoindolin-5-yl)pyrimidin-4-yl)amino) isoquinolin-1(2H)-one]",13,> 10000
"CC(CC(=O)N1CCc2sc(-c3nccc(Nc4ccc5c(=O)[nH]ccc5c4)n3)cc2C1)C(F)(F)F (centres unmarked) [C49, 6-((2-(5-(4,4,4-trifluoro-3-methylbutanoyl)-4,5,6,7-tetrahydrothieno[3,2-c]pyridin-2-yl)pyrimidin-4-yl)amino)isoquinolin-1(2H)-one]",7,> 10000
CC(CC(=O)N1Cc2ccc(-c3nc(Nc4ccc5c(=O)[nH]ccc5c4)c4ccccc4n3)cc2C1)C(F)(F)F (centres unmarked) [C50],280,> 10000
"CC(C)(C)CC(=O)N1Cc2ccc(-c3ncc(F)c(Nc4ccc5c(=O)[nH]ccc5c4)n3)cc2C1 [C51, 6-((2-(2-(3,3-dimethyl-butanoyl)isoindolin-5-yl)-5-fluoro-pyrimidin-4-yl)amino) isoquinolin-1(2H)-one]",53,> 10000
"CC(C)(C)CC(=O)N1CCc2sc(-c3ncc(F)c(Nc4ccc5c(c4)CCNC5=O)n3)cc2C1 [C53, 6-((2-(5-(3,3-dimethylbutanoyl)-4,5,6,7-tetrahydrothieno [3,2-c]pyridin-2-yl)-5-fluoropyrimidin-4-yl)amino)-3,4-dihydroisoquinolin-1(2H)-one]",135,> 10000
"O=C(C1CC(F)(F)C1)N1Cc2ccc(-c3nccc(Nc4ccc5c(=O)[nH]ccc5c4)n3)cc2C1 [C54, 6-((2-(2-(3,3-difluoroocyclobutane-1-carbonyl)isoindolin-5-yl)pyrimidin-4-yl)amino)isoquinolin-1(2H)-one]",17,> 10000
"CC(CC(=O)N1CCc2sc(-c3ncc(F)c(Nc4ccc5c(c4)CCNC5=O)n3)cc2C1)C(F)(F)F (centres unmarked) [C55, 6-((5-fluoro-2-(5-(4,4,4-trifluoro-3-methylbutanoyl)-4,5,6,7-tetrahydrothieno[3,2-c]pyridin-2-yl)pyrimidin-4-yl)amino)-3,4-dihydroisoquinolin-1(2H)-one]",51,> 10000
"CC(C)(C)CC(=O)N1Cc2ccc(-c3nccc(Nc4ccc5c(=O)[nH]ccc5c4)n3)cc2C1 [C56, 6-((2-(2-(3,3-dimethyl-butanoyl)isoindolin-5-yl)pryimidin-4-yl)amino) isoquinolin-1(2H)-one]",24,> 10000
"CC(C)(C)CC(=O)N1CCc2sc(-c3nccc(Nc4ccc5c(=O)[nH]ccc5c4)n3)cc2C1 [C57, 6-((2-(5-(3,3-dimethylbutanoyl)-4,5,6,7-tetrahydrothieno[3,2-c]pyridin-2-yl)pyrimidin-4-yl)amino)isoquinolin-1(2H)-one]",16,> 10000
"CC(OC(=O)N1CCc2sc(-c3nccc(Nc4ccc5c(c4)CCNC5=O)n3)cc2C1)C(F)(F)F (centres unmarked) [C59, 1,1,1-trifluoropropan-2-yl 2-(4-((1-oxo-1,2,3,4-tetrahydroisoquinolin-6-yl)amino)pyrimidin-2-yl)-6,7-dihydrothieno[3,2-c]pyridine-5(4H)-carboxylate]",33,> 10000
"CC(OC(=O)N1CCc2sc(-c3ncc(F)c(Nc4ccc5c(=O)[nH]ncc5c4)n3)cc2C1)C(F)(F)F (centres unmarked) [C60, 1,1,1-trifluoropropan-2-yl 2-(5-fluoro-4-((1-oxo-1,2-dihydrophthalazin-6-yl)amino)pyrimidin-2-yl)-6,7-dihydrothieno[3,2-c]pyridine-5(4H)-carboxylate]",13,> 10000
"O=C1NCCc2cc(Nc3nc(-c4cc5c(s4)CCN(C(=O)OC(C(F)(F)F)C(F)(F)F)C5)ncc3F)ccc21 [C61, 1,1,1,3,3,3-hexafluoropropan-2-yl 2-(5-fluoro-4-((1-oxo-1,2,3,4-tetrahydroisoquinolin-6-yl)amino)pyrimidin-2-yl)-6,7-dihydrothieno[3,2-c]pyridine-5(4H)-carboxylate]",170,> 10000
O=C(N1Cc2ccc(-c3ncc(F)c(Nc4ccc5c(=O)[nH]ccc5c4)n3)cc2C1)C(F)(F)F [C62],139,> 10000
"O=C(CCC(F)(F)F)N1Cc2ccc(-c3ncc(F)c(Nc4ccc5c(=O)[nH]ccc5c4)n3)cc2C1 [C63, 6-((5-fluoro-2-(2-(4,4,4-trifluoro-butanoyl)isoindolin-5-yl)pyrimidin-4-yl)amino) isoquinolin-1(2H)-one]",24,> 10000
"O=C1NCCc2cc(Nc3nc(-c4ccc5c(c4)CN(C(=O)CCC(F)(F)F)C5)ncc3F)ccc21 [C64, 6-((5-fluoro-2-(2-(4,4,4-trifluoro-butanoyl)isoindolin-5-yl)pyrimidin-4-yl)amino)-3,4-dihydro-isoquinolin-1(2H)-one]",109,> 10000
"C[C@@H](OC(=O)N1CCc2sc(-c3ncc(F)c(Nc4ccc5c(c4)CCNC5=O)n3)cc2C1)C(F)(F)F [C65, (R)-1,1,1-trifluoropropan-2-yl 2-(5-fluoro-4-((1-oxo-1,2,3,4-tetrahydroisoquinolin-6-yl)amino)pyrimidin-2-yl)-6,7-dihydrothieno[3,2-c]pyridine-5(4H)-carboxylate]",80,> 10000
